{"source": "patent US20090022803A1", "about": "“Oral Formulations For Delivery of Catecholic Butanes Including Ndga Compounds” (priority 2005, published 2009)", "assay_type": "physicochemical", "method": "A 10 mL solution of M4N at a concentration of about 10 mg/mL in 40% BP-β-CD was made as follows. About 10 mL of the 40% HP-β-CD solution were added to a glass beaker containing a stir bar. The beaker was placed on a magnetic plate and the stir bar was set to stir at medium speed. About […] of M4N were slowly added to the 40% HP-β-CD in the center of the beaker with the aid of a spatula. The M4N/40% HP-β-CD mixture was stirred for 2 hr or until all M4N was uniformly suspended without any clumps being present. The M4N/40% HP-β-CD mixture was optionally heated at 80° C. for about 30 min. (or longer if a larger volume of solution was desired, for example, 1 hr at 80° C. for 100 mL of the M4N/HP-β-CD mixture), or longer as needed to ensure complete dissolution of M4N. […] The final M4N/40% HP-β-CD solution was stored at room temperature and was kept protected from light. This process may be scaled up or down to obtain the requisite volume or concentration of M4N. Formulations containing M4N in other cyclodextrin solutions may be similarly made, such as, for example, by substituting HP-β-CD in the process described above with other cyclodextrins. […]\nA 10 mL solution of M4N at a concentration of about 10 mg/mL in 50% HP-β-CD/0.5% HPMC was made as follows. About 10 mL of the 50% HP-β-CD/0.5% HPMC solution were added to a glass beaker containing a stir bar. The beaker was placed on a magnetic plate and the stir bar was set to stir at medium speed. About 100 mg of M4N were slowly added to the 50% HP-β-CD/0.5% HPMC in the center of the beaker with the aid of a spatula. The M4N/50% HP-β-CD/0.5% HPMC mixture was stirred for 24 hr or until all M4N was uniformly suspended without any clumps being present. The M4N/50% HP-β-CD/0.5% HPMC mixture was heated at about 90° C. for about 30 min. (or longer if a larger volume of solution was desired, for example, 1 hr at 90° C. for 500 mL of the M4N/50% HP-β-CD/0.5% HPMC mixture), or longer as needed to ensure complete dissolution of M4N. […] The final M4N/50% HP-β-CD/0.5% HPMC solution was stored at room temperature and was kept protected from light.\nA 10 mL solution of M4N at a concentration of about 20 mg/mL in 5% EC (w/v) (the “EC formulation”) was made as follows. About 10 mL of 5% EC formulation, made as described above, were added to a glass beaker containing a stir bar. The beaker was placed on a magnetic plate and the stir bar was set to stir at medium speed, and covered with a round Teflon® cover. About 200 mg of M4N were slowly added to the 5% EC formulation in the center of the beaker with the aid of a spatula to prevent M4N from sticking to the beaker wall. The M4N/EC mixture was stirred for 2 hr or until all M4N had dissolved or was uniformly suspended without any clumps being present. The M4N/EC mixture was heated at about 60° C. for about 30 min. (or longer if a larger volume of solution was desired, for example, 1 hr at 60° C. for 500 mL of the M4N/EC mixture), or longer as needed to ensure complete dissolution of M4N. […] The final M4N/EC solution was stored at room temperature and was kept protected from light.\nA 10 mL solution of M4N at a concentration of about 50 mg/mL in sesame oil was made as follows. About 10 mL of sesame oil were added to a glass beaker containing a stir bar. The beaker was placed on a magnetic plate and the stir bar was set to stir at medium speed. About 500 mg of M4N were slowly added to the sesame oil in the center of the beaker with the aid of a spatula to prevent M4N from sticking to the beaker wall. The M4N/sesame oil mixture was stirred for about 2 hr or until all M4N had dissolved or was uniformly suspended without any clump being present. The M4N/sesame oil mixture was heated at about 60° C. for about 30 min. (or longer if a larger volume of solution was desired, for example, 1 hr at 60° C. for 500 mL of the M4N/sesame oil mixture), or longer as need to ensure complete dissolution of M4N. […]", "key": {"[1]": {"details": "M4N 13.3 mg/mL in 27% HP-β-CD, 33% PEG 400 (v/v)"}, "[2]": {"details": "M4N 13.3 mg/mL in 27% HP-β-CD, 33% Tween ® 80 (v/v)"}, "[3]": {"details": "M4N 16.7 mg/mL in 13% HP-β-CD, 67% PEG 300 (v/v)"}, "[4]": {"details": "M4N 19.3 mg/mL in 10% HP-β-CD, 77% PEG 300 (v/v)"}, "[5]": {"details": "M4N 50 mg/mL in 50% HP-β-CD, 1.25% PVP (w/v)"}}, "note": "Read-outs that look alike come from different tables or passages of the source. For Dissolution After Cool Down in this document: key: N represents 'No'; Y represents 'Yes.'.", "data": [{"smiles": "COc1ccc(C[C@@H](C)[C@@H](C)Cc2ccc(OC)c(OC)c2)cc1OC", "note": "[Formulation M4N, meso-1,4-bis(3,4-dimethoxyphenyl)-2,3-dimethylbutane]", "values": [{"measurement": "Dissolution After Cool Down", "setting": "[1]", "result": "Y"}, {"measurement": "Dissolution After Rotation", "setting": "[1]", "result": "N"}, {"measurement": "Dissolution After Heating at X° C.", "setting": "M4N 13.3 mg/mL in 27% HP-β-CD, 33% PEG 400 (v/v), 60°", "result": "Y at 60°"}, {"measurement": "Dissolution After Cool Down", "setting": "[2]", "result": "N"}, {"measurement": "Dissolution After Rotation", "setting": "[2]", "result": "N"}, {"measurement": "Dissolution After Heating at X° C.", "setting": "M4N 13.3 mg/mL in 27% HP-β-CD, 33% Tween ® 80 (v/v), 60°", "result": "Y at 60°"}, {"measurement": "Dissolution After Rotation", "setting": "M4N 14 mg/mL in 40% HP-β-CD", "result": "N"}, {"measurement": "Dissolution After Heating at X° C.", "setting": "M4N 14 mg/mL in 40% HP-β-CD, 80°", "result": "N at 80°"}, {"measurement": "Dissolution After Rotation", "setting": "M4N 16 mg/mL in 40% HP-β-CD", "result": "N"}, {"measurement": "Dissolution After Heating at X° C.", "setting": "M4N 16 mg/mL in 40% HP-β-CD, 80°", "result": "N at 80°"}, {"measurement": "Dissolution After Cool Down", "setting": "[3]", "result": "N"}, {"measurement": "Dissolution After Rotation", "setting": "[3]", "result": "N"}, {"measurement": "Dissolution After Heating at X° C.", "setting": "M4N 16.7 mg/mL in 13% HP-β-CD, 67% PEG 300 (v/v), 60°", "result": "Y at 60°"}, {"measurement": "Dissolution After Cool Down", "setting": "[4]", "result": "N"}, {"measurement": "Dissolution After Rotation", "setting": "[4]", "result": "N"}, {"measurement": "Dissolution After Heating at X° C.", "setting": "M4N 19.3 mg/mL in 10% HP-β-CD, 77% PEG 300 (v/v), 60°", "result": "Y at 60°"}, {"measurement": "Dissolution After Cool-Down", "setting": "M4N 20 mg/mL in 5% EC in EtOH", "result": "Y"}, {"measurement": "Dissolution After Rotation", "setting": "M4N 20 mg/mL in 5% EC in EtOH", "result": "N"}, {"measurement": "Dissolution After Rotation", "setting": "M4N 20 mg/mL in 30% HP-β-CD", "result": "N"}, {"measurement": "Dissolution After Heating at X° C.", "setting": "M4N 20 mg/mL in 30% HP-β-CD, 90°", "result": "N at 90°"}, {"measurement": "Dissolution After Rotation", "setting": "M4N 20 mg/mL in 40% HP-β-CD", "result": "N"}, {"measurement": "Dissolution After Heating at X° C.", "setting": "M4N 20 mg/mL in 40% HP-β-CD, 80°", "result": "N at 80°"}, {"measurement": "Dissolution After Rotation", "setting": "M4N 20 mg/mL in 50% HP-β-CD", "result": "N"}, {"measurement": "Dissolution After Rotation", "setting": "M4N 20 mg/mL in 50% HP-β-CD, 0.5% CMC", "result": "Suspension"}, {"measurement": "Dissolution After Rotation", "setting": "M4N 20 mg/mL in 50% HP-β-CD, 0.5% HPMC, other experiment, no heat", "result": "Suspension"}, {"measurement": "Dissolution After Heating at X° C.", "setting": "M4N 20 mg/mL in 50% HP-β-CD, 90°", "result": "N at 90°"}, {"measurement": "Dissolution After Cool-Down", "setting": "M4N 20 mg/mL in Corn Oil", "result": "Y"}, {"measurement": "Dissolution After Cool-Down", "setting": "M4N 20 mg/mL in Sesame Oil", "result": "Y"}, {"measurement": "Dissolution After Cool-Down", "setting": "M4N 24.3 mg/mL in 75% Sesame Oil, 9% Tween ® 20, 16% Glycerol", "result": "Y"}, {"measurement": "Dissolution After Cool-Down", "setting": "M4N 29 mg/mL in 89% Sesame Oil, 11% Tween ® 20", "result": "Y"}, {"measurement": "Dissolution After Cool-Down", "setting": "M4N 30 mg/mL in 5% EC in EtOH", "result": "N"}, {"measurement": "Dissolution After Rotation", "setting": "M4N 30 mg/mL in 5% EC in EtOH", "result": "N"}, {"measurement": "Dissolution After Cool-Down", "setting": "M4N 30 mg/mL in Olive Oil", "result": "N"}, {"measurement": "Dissolution After Cool-Down", "setting": "M4N 30 mg/mL in Sesame Oil", "result": "Y"}, {"measurement": "Dissolution After Cool-Down", "setting": "M4N 30 mg/mL in Soybean Oil", "result": "N"}, {"measurement": "Dissolution After Cool-Down", "setting": "M4N 40 mg/mL in 50% Peppermint Oil, 50% PEG 300", "result": "Y"}, {"measurement": "Dissolution After Cool-Down", "setting": "M4N 40 mg/mL in 50% Peppermint Oil, 50% PEG 400", "result": "Y"}, {"measurement": "Dissolution After Cool-Down", "setting": "M4N 40 mg/mL in 50% Peppermint Oil, 50% Sesame Oil", "result": "Y"}, {"measurement": "Dissolution After Cool-Down", "setting": "M4N 40 mg/mL in 50% Peppermint Oil, 50% Tween ® 20", "result": "Y"}, {"measurement": "Dissolution After Cool-Down", "setting": "M4N 40 mg/mL in 85% Sesame Oil, 15% Tween ® 20", "result": "N"}, {"measurement": "Dissolution After Cool-Down", "setting": "M4N 40 mg/mL in Corn Oil", "result": "Y"}, {"measurement": "Dissolution After Cool-Down", "setting": "M4N 40 mg/mL in Peppermint Oil", "result": "Y"}, {"measurement": "Dissolution After Rotation", "setting": "M4N 50 mg/mL in 2.3% HPMC", "result": "N"}, {"measurement": "Dissolution After Cool-Down", "setting": "M4N 50 mg/mL in 5% EC in EtOH", "result": "N"}, {"measurement": "Dissolution After Rotation", "setting": "M4N 50 mg/mL in 5% EC in EtOH", "result": "N"}, {"measurement": "Dissolution After Rotation", "setting": "M4N 50 mg/mL in 15% α-CD", "result": "N"}, {"measurement": "Dissolution After Heating at X° C.", "setting": "M4N 50 mg/mL in 15% α-CD, 90°", "result": "N at 90°"}, {"measurement": "Dissolution After Rotation", "setting": "M4N 50 mg/mL in 20% HP-β-CD in saline", "result": "N"}, {"measurement": "Dissolution After Rotation", "setting": "M4N 50 mg/mL in 30% HP-β-CD", "result": "N"}, {"measurement": "Dissolution After Heating at X° C.", "setting": "M4N 50 mg/mL in 30% HP-β-CD, 90°", "result": "N at 90°"}, {"measurement": "Dissolution After Rotation", "setting": "M4N 50 mg/mL in 40% HP-β-CD", "result": "N"}, {"measurement": "Dissolution After Heating at X° C.", "setting": "M4N 50 mg/mL in 40% HP-β-CD, 80°", "result": "N at 80°"}, {"measurement": "Dissolution After Rotation", "setting": "M4N 50 mg/mL in 50% HP-β-CD", "result": "N"}, {"measurement": "Dissolution After Rotation", "setting": "M4N 50 mg/mL in 50% HP-β-CD, 0.5% HPMC", "result": "N"}, {"measurement": "Dissolution After Rotation", "setting": "M4N 50 mg/mL in 50% HP-β-CD, 0.5% HPMC, other experiment, no heat", "result": "Suspension"}, {"measurement": "Dissolution After Heating at X° C.", "setting": "[5]", "result": "N"}, {"measurement": "Dissolution After Rotation", "setting": "[5]", "result": "N"}, {"measurement": "Dissolution After Heating at X° C.", "setting": "M4N 50 mg/mL in 50% HP-β-CD, 90°", "result": "N at 90°"}, {"measurement": "Dissolution After Cool-Down", "setting": "M4N 50 mg/mL in Camillia Oil", "result": "N"}]}]}
